The source of these data is ChEMBL document CHEMBL3085759, “Structure-activity relationship (SAR) and preliminary mode of action studies of 3-substituted benzylthioquinolinium iodide as anti-opportunistic infection agents” (Eur J Med Chem, 2013).

SMILES strings stand for the structures. In brackets after ≈: the same amount, converted by molar mass.

Data set [1] concerns Mycobacterium intracellulare. Kind of data set: Antimicrobial activity against Mycobacterium intracellulare ATCC 23068 by Alamar blue method. The class given is functional, organism-based.
The test system of data set [2] is Staphylococcus aureus. Kind of data set: Antimicrobial activity against methicillin-resistant Staphylococcus aureus ATCC 33591 by Alamar blue method. The class given is functional, organism-based.
The subject of data set [3] is Staphylococcus aureus. Description: Antimicrobial activity against Staphylococcus aureus ATCC 29213 by Alamar blue method. The note with it: Staphylococcus aureus, ATCC 29213; for IC50: read-out: IC50. The class given is functional, organism-based.
The subject of the next data set is Nakaseomyces glabratus. Description: Antimicrobial activity against Candida glabrata by Alamar blue method. The class given is functional, organism-based.
The subject of a further data set is Pichia kudriavzevii. Description: Antimicrobial activity against Candida krusei ATCC 6258 by Alamar blue method. The class given is functional, organism-based.
The test system of another data set is Vero. Description: Cytotoxicity against african green monkey Vero cells at 10 ug/ml after 48 hrs by Neutral Red dye assay. The class given is cell-based. The note with it: chlorocebus sabaeus.
In a further data set the test system is Aspergillus fumigatus. Description: Antimicrobial activity against Aspergillus fumigatus ATCC 204305 by Alamar blue method. The class given is functional, organism-based.
The test system of a further data set is Cryptococcus neoformans. Description: Antimicrobial activity against Cryptococcus neoformans ATCC 90113 by Alamar blue method. The class given is functional, organism-based.
The next data set relates to Candida albicans. Description: Antimicrobial activity against Candida albicans ATCC 90028 by Alamar blue method. The class given is functional, organism-based.

Turning to `COc1ccc(CSc2cc3ccccc3[n+](CCCCCC3CCCCC3)c2)cc1.[I-]`, the IC50 in [1] was found to be 1.7 µg/mL; in the data set on Staphylococcus aureus [2], 0.36 µg/mL; with Staphylococcus aureus [3], 0.18 µg/mL; with Nakaseomyces glabratus, 3 µg/mL; in the data set on Pichia kudriavzevii, 0.37 µg/mL; in the data set on Aspergillus fumigatus, 5.4 µg/mL. Also, the half-inhibitory concentration (IC50) in the data set with Cryptococcus neoformans came to 0.18 µg/mL; with Candida albicans it was 1.2 µg/mL. Moreover, the MBC (in data set [1]; against Staphylococcus aureus [2]; in the data set with Staphylococcus aureus [3]) was 2.5 µg/mL each time. The MIC in data set [1] was 2.5 µg/mL; in the data set on Staphylococcus aureus [2] it was 0.63 µg/mL; against Staphylococcus aureus [3], 0.31 µg/mL; with Nakaseomyces glabratus, 10 µg/mL; against Pichia kudriavzevii it was 0.63 µg/mL; in the data set on Aspergillus fumigatus it was 10 µg/mL. Further, the values for the MIC in the data set on Cryptococcus neoformans and against Candida albicans were 0.31 µg/mL and 5 µg/mL, respectively. The MFC stood at 10 µg/mL in the data set on Nakaseomyces glabratus; 1.3 µg/mL in the data set on Pichia kudriavzevii; 10 µg/mL with Aspergillus fumigatus; 0.63 µg/mL in the data set on Cryptococcus neoformans; 5 µg/mL in the data set with Candida albicans. Further, in the data set on Vero, the Activity result is on record as “Non-toxic”.

For the molecule `Fc1ccc(CSc2cc3ccccc3[n+](CCCCCC3CCCCC3)c2)cc1.[I-]`, the half-inhibitory concentration (IC50) is 6.9 µg/mL in data set [1]; 0.34 µg/mL with Staphylococcus aureus [2]; 0.34 µg/mL in the data set with Staphylococcus aureus [3]; 1.3 µg/mL in the data set with Nakaseomyces glabratus; 0.14 µg/mL with Pichia kudriavzevii; 5.2 µg/mL in the data set on Aspergillus fumigatus. The molecule further yielded an IC50 in the data set on Candida albicans of 1.9 µg/mL. Further, the minimal bactericidal concentration (MBC) was 10 µg/mL in data set [1], 2.5 µg/mL against Staphylococcus aureus [2] and 2.5 µg/mL in the data set with Staphylococcus aureus [3]. Moreover, the MIC amounted to 10 µg/mL in data set [1]; 0.63 µg/mL against Staphylococcus aureus [2]; 0.63 µg/mL in the data set with Staphylococcus aureus [3]; 2.5 µg/mL in the data set on Nakaseomyces glabratus; 0.63 µg/mL with Pichia kudriavzevii; 10 µg/mL against Aspergillus fumigatus. Also, the MIC with Cryptococcus neoformans is 0.63 µg/mL; with Candida albicans, 5 µg/mL. For the same molecule, the MFC in the data set with Nakaseomyces glabratus came to 2.5 µg/mL; with Pichia kudriavzevii, 0.63 µg/mL; with Aspergillus fumigatus, 10 µg/mL; against Cryptococcus neoformans, 0.63 µg/mL; in the data set on Candida albicans it was 5 µg/mL. For the same molecule, the Activity entry with Vero is listed as “Non-toxic”.

Consider `[I-].c1ccc(CCSc2cc3ccccc3[n+](CCCCCC3CCCCC3)c2)cc1`, for which the concentration for half-maximal inhibition (IC50) in data set [1] worked out at 12 µg/mL; in the data set on Staphylococcus aureus [2], 1.2 µg/mL; with Staphylococcus aureus [3], 0.73 µg/mL; with Nakaseomyces glabratus it was 9.5 µg/mL; in the data set on Pichia kudriavzevii it was 0.69 µg/mL; in the data set on Aspergillus fumigatus, 19 µg/mL. Also, the IC50 with Cryptococcus neoformans was 0.73 µg/mL; in the data set on Candida albicans it was 3.6 µg/mL. Besides, the MIC in data set [1] was 20 µg/mL; with Staphylococcus aureus [2], 2.5 µg/mL; in the data set with Staphylococcus aureus [3] it was 1.3 µg/mL; with Nakaseomyces glabratus, 20 µg/mL; with Pichia kudriavzevii, 5 µg/mL; with Aspergillus fumigatus, more than 20 µg/mL. Besides, the MIC against Cryptococcus neoformans is 1.3 µg/mL; in the data set on Candida albicans, more than 20 µg/mL. For the same molecule, the MBC in the data set with Staphylococcus aureus [2] and with Staphylococcus aureus [3] was 10 µg/mL in each case. Besides, the MFC was more than 20 µg/mL in the data set with Nakaseomyces glabratus; 5 µg/mL with Pichia kudriavzevii; more than 20 µg/mL against Aspergillus fumigatus; 1.3 µg/mL against Cryptococcus neoformans; more than 20 µg/mL against Candida albicans.

As to `O=C(O)c1cn(C2CC2)c2cc(N3CCNCC3)c(F)cc2c1=O` [CIPROFLOXACIN], the midpoint of inhibition in [1], the IC50, lay at 0.005 µg/mL (≈ 0.0151 µM). Further, the MIC stood at 0.45 µg/mL (≈ 1.36 µM) in [1], 0.5 µg/mL (≈ 1.51 µM) against Staphylococcus aureus [2] and 0.5 µg/mL (≈ 1.51 µM) in the data set with Staphylococcus aureus [3].

As to `Fc1ccc(Oc2cc3ccccc3[n+](CCCCCC3CCCCC3)c2)cc1.[I-]`, the half-maximal inhibitory concentration (IC50) in data set [1] was 20 µg/mL; with Staphylococcus aureus [2], 14 µg/mL; in the data set with Staphylococcus aureus [3], 14 µg/mL; with Nakaseomyces glabratus, more than 20 µg/mL; in the data set with Pichia kudriavzevii, more than 20 µg/mL; with Aspergillus fumigatus, more than 20 µg/mL. The IC50 was 8.62 µg/mL in the data set with Cryptococcus neoformans and more than 20 µg/mL in the data set on Candida albicans. For the same molecule, the MBC was 20 µg/mL in [1], more than 20 µg/mL against Staphylococcus aureus [2] and more than 20 µg/mL in the data set with Staphylococcus aureus [3]. Further, the MIC in data set [1] was 20 µg/mL; against Staphylococcus aureus [2] it was more than 20 µg/mL; in the data set on Staphylococcus aureus [3], 20 µg/mL; against Nakaseomyces glabratus, more than 20 µg/mL; against Pichia kudriavzevii, more than 20 µg/mL; with Aspergillus fumigatus, more than 20 µg/mL. For the same molecule, the MIC was 10 µg/mL with Cryptococcus neoformans and more than 20 µg/mL in the data set on Candida albicans. Besides, the MFC against Nakaseomyces glabratus was more than 20 µg/mL; against Pichia kudriavzevii, more than 20 µg/mL; against Aspergillus fumigatus, more than 20 µg/mL; in the data set on Cryptococcus neoformans, 10 µg/mL; in the data set with Candida albicans, more than 20 µg/mL.

On to `[I-].c1ccc(Oc2cc3ccccc3[n+](CCCCCC3CCCCC3)c2)cc1`, for which the half-maximal inhibitory concentration (IC50) was more than 20 µg/mL in [1]; more than 20 µg/mL with Staphylococcus aureus [2]; 19 µg/mL in the data set with Staphylococcus aureus [3]; more than 20 µg/mL in the data set on Nakaseomyces glabratus; more than 20 µg/mL in the data set with Pichia kudriavzevii; more than 20 µg/mL in the data set on Aspergillus fumigatus. The IC50 in the data set with Cryptococcus neoformans and in the data set with Candida albicans was more than 20 µg/mL in each case. Besides, the MBC (in data set [1]; in the data set with Staphylococcus aureus [2]; against Staphylococcus aureus [3]) was more than 20 µg/mL each time. Besides, the minimum inhibitory concentration (MIC) (in [1]; with Staphylococcus aureus [2]; in the data set with Staphylococcus aureus [3]; with Nakaseomyces glabratus; with Pichia kudriavzevii; in the data set on Aspergillus fumigatus) was more than 20 µg/mL throughout. For the same molecule, the MIC with Cryptococcus neoformans and against Candida albicans was more than 20 µg/mL throughout. The MFC with Nakaseomyces glabratus, against Pichia kudriavzevii, in the data set on Aspergillus fumigatus, against Cryptococcus neoformans and with Candida albicans was more than 20 µg/mL each time.

For `Ic1cc2ccccc2[n+](CCCCCC2CCCCC2)c1.[I-]`, the IC50 in data set [1] is more than 20 µg/mL; in the data set with Staphylococcus aureus [2] it was more than 20 µg/mL; in the data set on Staphylococcus aureus [3], 18 µg/mL; with Nakaseomyces glabratus, more than 20 µg/mL; in the data set on Pichia kudriavzevii, 1.7 µg/mL; with Aspergillus fumigatus, more than 20 µg/mL. Also, the values for the IC50 with Cryptococcus neoformans and with Candida albicans were 5.8 µg/mL and more than 20 µg/mL, respectively. The MBC (in data set [1]; against Staphylococcus aureus [2]; with Staphylococcus aureus [3]) was more than 20 µg/mL each time. Moreover, the MIC in data set [1] was more than 20 µg/mL; with Staphylococcus aureus [2], more than 20 µg/mL; against Staphylococcus aureus [3] it was more than 20 µg/mL; with Nakaseomyces glabratus, more than 20 µg/mL; against Pichia kudriavzevii it was 10 µg/mL; in the data set with Aspergillus fumigatus it was more than 20 µg/mL. In addition, the MIC against Cryptococcus neoformans is 10 µg/mL; with Candida albicans, more than 20 µg/mL. Further, the MFC with Nakaseomyces glabratus is more than 20 µg/mL; with Pichia kudriavzevii it was 10 µg/mL; against Aspergillus fumigatus it was more than 20 µg/mL; in the data set on Cryptococcus neoformans, 10 µg/mL; in the data set on Candida albicans it was more than 20 µg/mL.

For `[I-].c1ccc2c(c1)cc(SC1CCCCC1)c[n+]2CCCCCC1CCCCC1`, the IC50 in data set [1] is 8.4 µg/mL; in the data set on Staphylococcus aureus [2] it was 1.2 µg/mL; in the data set with Staphylococcus aureus [3], 0.74 µg/mL; with Nakaseomyces glabratus it was 15 µg/mL; in the data set with Pichia kudriavzevii, 0.35 µg/mL; with Aspergillus fumigatus it was more than 20 µg/mL. For the same molecule, the IC50 is 1.2 µg/mL in the data set with Cryptococcus neoformans and more than 20 µg/mL with Candida albicans. Also, the minimum bactericidal concentration (MBC) (in data set [1]; against Staphylococcus aureus [2]; against Staphylococcus aureus [3]) was 10 µg/mL in each case. The minimal inhibitory concentration (MIC) is 10 µg/mL in [1]; 2.5 µg/mL with Staphylococcus aureus [2]; 1.3 µg/mL in the data set with Staphylococcus aureus [3]; more than 20 µg/mL in the data set with Nakaseomyces glabratus; 2.5 µg/mL against Pichia kudriavzevii; more than 20 µg/mL against Aspergillus fumigatus. The minimal inhibitory concentration (MIC) with Cryptococcus neoformans was 2.5 µg/mL; against Candida albicans, more than 20 µg/mL. Moreover, the MFC against Nakaseomyces glabratus is more than 20 µg/mL; against Pichia kudriavzevii, 2.5 µg/mL; against Aspergillus fumigatus, more than 20 µg/mL; in the data set with Cryptococcus neoformans, 2.5 µg/mL; in the data set with Candida albicans it was more than 20 µg/mL.
